Measurements published in US12194049B2, “Composition for treating carbapenem antibiotic-resistant Acinetobacter baumannii infection” (priority 2019, dated 2025).

Key:
[1] = tested on: CR-Ab pneumonia model mice; experiment: Protective effect in CR-Ab pneumonia model mice (7-day survival); assay type: in vivo, Male C57BL/6 mice; details: intraperitoneal, once a day, after 7 days
[2] = tested on: clinically isolated Acinetobacter baumannii; details: found in 2017; cited from earlier work
[3] = tested on: carbapenem antibiotic-resistant Acinetobacter baumannii CR-Ab (157 clinically isolated strains); experiment: microbe, parasite or virus in culture; details: read-out: Cumulative microbial inhibition rates (%) against CR-Ab
From the text: Strains: 157 clinically isolated strains of carbapenem antibiotic-resistant Acinetobacter baumannii were selected and named as CR-Ab.
Drugs: Sulbactam and ceftazidime were taken and prepared into compositions of different ratios. The method was fixing the amount of sulbactam and gradually reducing the amount of ceftazidime to obtain compositions of sulbactam and ceftazidime at weight ratios of 1:1, 1:0.9, 1:0.8, 1:0.6, 1:0.4, 1:0.2 and 1:0.1, respectively. A sulbactam-only preparation was additionally used as a control.
The cumulative microbial inhibition rate was used to evaluate the microbial inhibition effects of the drugs, respectively. The cumulative microbial inhibition rate was defined as the microbial inhibition rate of a drug at a certain concentration plus all the microbial inhibition rates below that concentration.

**Q.** Which “Survival of CR-Ab pneumonia model mice” value ([1]; High dose (30 mg/kg)) does the source give for `C[C@@H](O)[C@H]1C(=O)N2C(C(=O)O)=C(S[C@@H]3CN[C@H](C(=O)N(C)C)C3)[C@H](C)[C@H]12` [Meropenem, meropenem] here?
**A.** 3/15

**Q.** And the “Survival of CR-Ab pneumonia model mice” value ([1]; Low dose (10 mg/kg))?
**A.** 2/15

**Q.** What about the resistance rate [2] of the same compound?
**A.** up to 69.3%

**Q.** With `CC1(C)[C@H](C(=O)O)N2C(=O)C[C@H]2S1(=O)=O` [Single sulbactam, (2S,5R)-3,3-dimethyl-7-oxo-4-thia-1-azabicyclo[3.2.0]heptane-2-carboxylate-4,4-dioxide] as the compound, how does the inhibition at 0.125 µg/mL [3] read?
**A.** 0%

**Q.** And the inhibition at 0.25 µg/mL [3]?
**A.** 0%

**Q.** And the inhibition at 0.5 µg/mL [3]?
**A.** 0%

**Q.** And the inhibition at 1 µg/mL [3]?
**A.** 7%

**Q.** And the inhibition at 2 µg/mL [3]?
**A.** 17%

**Q.** What about the inhibition at 4 µg/mL [3] of the same compound?
**A.** 32%

**Q.** What about the inhibition at 8 µg/mL [3] of the same compound?
**A.** 48%

**Q.** And the inhibition at 16 µg/mL [3]?
**A.** 64%

**Q.** And the inhibition at 32 µg/mL [3]?
**A.** 84%

**Q.** What about the inhibition at 64 µg/mL [3] of the same compound?
**A.** 94%

**Q.** And the inhibition at 128 µg/mL [3]?
**A.** 100%

**Q.** What about the inhibition at 256 µg/mL [3] of the same compound?
**A.** 100%

**Q.** And the inhibition at 512 µg/mL [3]?
**A.** 100%

**Q.** For `CC(C)(O/N=C(\C(=O)N[C@@H]1C(=O)N2C(C(=O)[O-])=C(C[n+]3ccccc3)CS[C@H]12)c1csc(N)n1)C(=O)O` [ceftazidime, (6R,7R)-7-[[(2Z)-2-(2-Aminothiazol-4-yl)-2-[(1-carboxy-1-methylethoxy)imino]acetyl]amino]-8-oxo-3-[(1-pyridinio)methyl]-5-thia-1-azabicyclo[4.2.0]oct-2-ene-2-carboxylate], which resistance rate [2] is on record?
**A.** up to 72%
